# Results published in patent US8722663B2, “Di-substituted pyridine derivatives as anticancers” (Otsuka Pharmaceutical Co., Ltd., priority 2010, dated 2014).
# Legend:
# [1] = test system: bicalutamide resistant human prostate cancer cell line established from LNCaP.FGC (LNCaP-Bic); experiment: Growth inhibition of LNCaP-Bic cells, WST-8 assay; type: cell-based; conditions: 120 h, 5 days with test compound
# Experimental: (§1) The growth inhibition on a bicalutamide resistant human prostate cancer cell line established from LNCaP.FGC (LNCaP-Bic) (Hobisch A, et al. Prostate. 2006; 66(4):413-20.) was determined by a WST-8 assay according to the method of Singh A K, et al. (Cancer Lett. 1996 Oct. 1; 107(1): 109-15.). In this method, LNCaP-Bic cells were seeded in RPMI 1640 medium containing 10% fetal bovine serum in a 96-well microplate and incubated at 37° C. for 24 hours in the presence of 5% carbon dioxide. Then, the test compound was added and the cells were incubated for another 5 days. After incubation, a 15-μL volume of WST-8 (2-(2-methoxy-4-nitrophenyl)-3-(4-nitrophenyl)-5-(2,4-[…])-2H-tetrazolium, monosodium salt) was added. After the incubation for the time, the color reaction was stopped by adding 15 μL of 1% SDS (sodium dodecyl sulfate) solution and the optical density was determined at the measurement wavelength of 450 nm and the reference wavelength of 630 nm, and the difference was calculated. The cell growth activity in each well was defined as the value determined by subtracting the OD in the control well not containing cells (the difference in absorbance between 450 nm and 630 nm) from that in the test well.
# (§2) The 50% inhibitory concentration (IC50 (nM)) of the test compound was determined by comparing the cell growth activity in the well containing the test compound with that of the control not containing the test compound.
# [2] = test system: human prostate (carcinoma) cell line (DU 145); experiment: Growth inhibition of DU 145 cells, WST-8 assay; type: cell-based; conditions: 120 h, 5 days with test compound
# Experimental: as §1, §2
# The growth inhibition on a human prostate (carcinoma) cell line (DU 145) (van Bokhoven A, et al. Prostate. 2003; 57(3):205-25.) was also determined by the above method.
# [3] = test system: human prostate (adenocarcinoma) cell line (VcaP); experiment: Growth inhibition of VcaP cells, WST-8 assay; type: cell-based; conditions: 120 h, 5 days with test compound
# Experimental: as §1, §2
# The growth inhibition on a human prostate (adenocarcinoma) cell line (VcaP) (Korenchuk S, et al. In Vivo. 2001; 15(2):163-8.) was also determined by the above method.
# [4] = test system: human prostate (carcinoma) cell line (LNCaP.FGC); experiment: Growth inhibition of LNCaP.FGC cells, WST-8 assay; type: cell-based; conditions: 120 h, 5 days with test compound
# Experimental: as §1, §2
# The growth inhibition on a human prostate (carcinoma) cell line (LNCaP.FGC) (van Bokhoven A, et al. Prostate. 2003; 57(3):205-25.) was also determined by the above method.
# [5] = test system: human prostate (adenocarcinoma) cell line (PC-3); experiment: Growth inhibition of PC-3 cells, WST-8 assay; type: cell-based; conditions: 120 h, 5 days with test compound
# Experimental: as §1, §2
# The growth inhibition on a human prostate (adenocarcinoma) cell line (PC-3) (van Bokhoven A, et al. Prostate. 2003; 57(3):205-25.) was also determined by the above method.
# [6] = test system: human breast cancer cell line (MDA-MB-468); experiment: Growth inhibition of MDA-MB-468 cells, sulforhodamine B method; type: cell-based; conditions: 120 h, 5 days with test compound
# Experimental: Growth inhibition of a human breast cancer cell line (MDA-MB-468) was determined by the sulforhodamine B method based on the method of Skehan P. et al. (J Natl Cancer Inst. 1990 Jul. 4; 82(13): 1107-12). In the study, MDA-MB-468 cells were seeded on DMEM medium containing 10% fetal bovine serum in a 96-well microplate. After 24-h incubation at 37° C. in the presence of 5% carbon dioxide, the test compound was added and the cells were incubated for another 5 days. After incubation, a trichloroacetic acid solution was added to yield the final concentration of 10% and the cells were left to stand at 4° C. for 1 hour to fix. Then, the cells were washed with water to remove the medium and trichloroacetic acid and dried in the air. The dried cells were stored at 4° C. until they were stained with sulforhodamine B. To each well, 1% acetic acid solution containing 0.4% sulforhodamine B was added and left to stand for 20 to 30 minutes at room temperature. After discarding the supernatant, each well was washed with 1% acetic acid solution, and 10 mM Tris([…]) solution was added while stirring to elute the dye taken into the cells. Then, the optical density was determined at the measurement wavelength of 492 nm and the reference wavelength of 690 nm, and the difference was calculated. The cell growth activity in each well was defined as the value determined by subtracting the OD in the control well not containing cells (the difference in absorbance between 492 nm and 690 nm) from that in the test well.
# as §2
SMILES,IC50 [1] [nM],IC50 [2] [nM],IC50 [3] [nM],IC50 [4] [nM],melting point [°C],IC50 [5] [nM],IC50 [6] [µM]
"Cc1ccc(OCCCc2ccc(CN3CCN(C(=O)/C=C/c4cc(C)c(Oc5ccc(OCc6ccc(C#N)cc6)cn5)c(Cl)c4)CC3)cc2)cc1.Cl [Example 621, 4-{[(6-{2-Chloro-6-methyl-4-[(E)-3-(4-{4-[3-(4-methylphenoxy)propyl]benzyl}piperazin-1-yl)-3-oxoprop-1-en-1-yl]phenoxy}pyridin-3-yl)oxy]methyl}benzonitrile hydrochloride]",< 10,< 10,< 10,< 10,193 to 194.8,< 10,–
"COc1ccc(COc2ccc(Oc3c(C)cc(/C=C/C(=O)N4CCN(Cc5ccc(/C=C/COc6ccc(C)cc6)cc5)CC4)cc3C)nc2)cc1 [Example 1, (2E)-3-[4-({5-[(4-methoxybenzyl)oxy]pyridin-2-yl}oxy)-3,5-dimethylphenyl]-1-(4-{4-[(1E)-3-(4-methylphenoxy)prop-1-en-1-yl]benzyl}piperazin-1-yl)prop-2-en-1-one]",< 10,< 10,< 10,< 10,130 to 132,< 10,–
"Cc1cc(/C=C/C(=O)N2CCN(Cc3ccc(CCOc4ccc(C#N)cc4)cc3)CC2)cc(Cl)c1Oc1ccc(OCc2ccc(C(F)(F)F)cc2)cn1 [Example 289, 4-{2-[4-({4-[(E)-3-{3-chloro-5-methyl-4-[(5-{[4-(trifluoromethyl)benzyl]oxy}pyridin-2-yl)oxy]phenyl}prop-2-enoyl]piperazin-1-yl}methyl)phenyl]ethoxy}benzonitrile]",–,–,–,–,–,–,< 0.01
"Cc1cc(/C=C/C(=O)N2CCN(Cc3ccc(CCOc4ccc(C(F)(F)F)cn4)cc3)CC2)cc(Cl)c1Oc1ccc(OCc2ccc(C#N)cc2)cn1.Cl [Example 613, 4-{[(6-{2-Chloro-6-methyl-4-[(E)-3-oxo-3-{4-[4-(2-{[5-(trifluoromethyl)pyridin-2-yl]oxy}-ethyl)benzyl]piperazin-1-yl}prop-1-en-1-yl]phenoxy}pyridin-3-yl)oxy]methyl}benzonitrile hydrochloride]",< 10,< 10,< 10,< 10,193.7 to 194.2,< 10,–
"CCOc1cccc(OCCc2ccc(CN3CCN(C(=O)/C=C/c4cc(C)c(Oc5ccc(OCc6cncs6)cn5)c(C)c4)CC3)cc2)c1.Cl [Example 594, (E)-3-(3,5-Dimethyl-4-{[5-(1,3-thiazol-5-ylmethoxy)pyridin-2-yl]oxy}phenyl)-1-(4-{4-[2-(3-ethoxyphenoxy)ethyl]benzyl}piperazin-1-yl)prop-2-en-1-one hydrochloride]",< 10,< 10,< 10,< 10,190.4 to 191.8,< 10,–
"Cc1cc(/C=C/C(=O)N2CCN(Cc3ccc(/C=C/COc4ccc(Br)cn4)cc3)CC2)cc(Cl)c1Oc1ccc(OCc2ccc(C#N)cc2)cn1.Cl [Example 657, 4-({[6-(4-{(1E)-3-[4-(4-{(1E)-3-[(5-Bromopyridin-2-yl)oxy]prop-1-en-1-yl}benzyl)piperazin-1-yl]-3-oxoprop-1-en-1-yl}-2-chloro-6-methylphenoxy)pyridin-3-yl]oxy}methyl)benzonitrile hydrochloride]",< 10,< 10,< 10,< 10,145 to 145.8,< 10,–
"Cc1ccc(COc2ccc(Oc3c(C)cc(/C=C/C(=O)N4CCCN(Cc5ccc(CCOc6ccc(C(C)C)cc6)cc5)CC4)cc3Cl)nc2)cc1 [Example 123, (E)-3-[3-Chloro-5-methyl-4-({5-[(4-methylbenzyl)oxy]pyridin-2-yl}oxy)phenyl]-1-[4-(4-{2-[4-(propan-2-yl)phenoxy]ethyl}benzyl)-1,4-diazepan-1-yl]prop-2-en-1-one]",–,–,–,–,–,–,< 0.01
"COc1ccc(NCCc2ccc(CN3CCN(C(=O)/C=C/c4ccc(Oc5ccc(OCc6ccc(C#N)cc6)cn5)c(Cl)c4)CC3)cc2)cc1.Cl.Cl [Example 669, 4-({[6-(2-Chloro-4-{(E)-3-[4-(4-{2-[(4-methoxyphenyl)amino]ethyl}benzyl)piperazin-1-yl]-3-oxoprop-1-en-1-yl}phenoxy)pyridin-3-yl]oxy}methyl)benzonitrile dihydrochloride]",< 10,< 10,< 10,< 10,219.5 to 222.3,< 10,–
"Cc1ccc(COc2ccc(Oc3c(C)cc(/C=C/C(=O)N4CCN(Cc5ccc(CCOc6ccc(N(C)C)cc6)cc5)CC4)cc3Cl)nc2)cc1 [Example 321, (E)-3-[3-chloro-5-methyl-4-({5-[(4-methylbenzyl)oxy]-pyridin-2-yl}oxy)phenyl]-1-[4-(4-{2-[4-(dimethylamino)phenoxy]ethyl}benzyl)piperazin-1-yl]prop-2-en-1-one]",–,–,–,–,–,–,< 0.01
"Cc1cc(/C=C/C(=O)N2CCN(Cc3ccc(CCOc4ccc(F)cc4)cc3)CC2)cc(Cl)c1Oc1ccc(OCc2ccccc2F)cn1.Cl [Example 447, (E)-3-[3-Chloro-4-({5-[(2-fluorobenzyl)oxy]pyridin-2-yl}oxy)-5-methylphenyl]-1-(4-{4-[2-(4-fluorophenoxy)ethyl]benzyl}piperazin-1-yl)prop-2-en-1-one hydrochloride]",< 10,< 10,< 10,< 10,224 to 224.5,< 10,–
"Cc1cc(/C=C/C(=O)N2CCN(Cc3ccc(CCOc4ccc(C(C)C)cc4)cc3)CC2)ccc1Oc1ccc(OCc2ccccc2Cl)cn1.Cl [Example 507, (E)-3-[4-({5-[(2-Chlorobenzyl)oxy]pyridin-2-yl}oxy)-3-methylphenyl]-1-[4-(4-{2-[4-(propan-2-yl)phenoxy]ethyl}benzyl)piperazin-1-yl]prop-2-en-1-one hydrochloride]",< 10,< 10,< 10,< 10,178.2 to 178.9,< 10,–
"Cc1ccc(COc2ccc(Oc3c(C)cc(/C=C/C(=O)N4CCN(Cc5ccc(CCOc6ccc(Cl)cc6)cc5)CC4)cc3Cl)nc2)cc1F.Cl [Example 427, (E)-3-[3-Chloro-4-({5-[(3-fluoro-4-methylbenzyl)oxy]pyridin-2-yl}oxy)-5-methylphenyl]-1-(4-{4-[2-(4-chlorophenoxy)ethyl]benzyl}piperazin-1-yl)prop-2-en-1-one hydrochloride]",< 10,< 10,< 10,< 10,224.7 to 224.8,< 10,–
"Cc1cc(/C=C/C(=O)N2CCN(Cc3ccc(CCOc4ccc(C(C)C)cc4)cc3)CC2)cc(C)c1Oc1ccc(OCc2cncs2)cn1.Cl [Example 595, (E)-3-(3,5-Dimethyl-4-{[5-(1,3-thiazol-5-ylmethoxy)pyridin-2-yl]oxy}phenyl)-1-[4-(4-{2-[4-(propan-2-yl)phenoxy]ethyl}benzyl)piperazin-1-yl]prop-2-en-1-one hydrochloride]",< 10,< 10,< 10,< 10,199.2 to 200.9,< 10,–
